In US20140045823A1 (Neurocrine Biosciences, Inc., priority 2012, published 2014):

Biological target: T1, human GPR119 (Homo sapiens, UniProt Q8TDV5)
T1 construct: expression vector for human GPR119 cDNA (Acc. No. NP_848566); expressed in transfected cells; Min-6/hGPR119
T1 sequence (Q8TDV5 1-335): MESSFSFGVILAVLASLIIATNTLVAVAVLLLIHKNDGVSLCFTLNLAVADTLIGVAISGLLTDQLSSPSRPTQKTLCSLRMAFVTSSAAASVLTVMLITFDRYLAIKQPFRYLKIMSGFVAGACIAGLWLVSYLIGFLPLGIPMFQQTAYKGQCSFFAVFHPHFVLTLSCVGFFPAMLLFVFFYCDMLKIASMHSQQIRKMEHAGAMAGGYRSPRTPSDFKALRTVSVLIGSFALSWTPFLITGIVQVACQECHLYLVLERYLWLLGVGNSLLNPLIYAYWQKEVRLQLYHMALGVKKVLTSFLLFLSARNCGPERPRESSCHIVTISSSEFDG
Experiment: AlphaScreen cAMP assay in MIN6 cells stably transfected with human GPR119
Format: cell-based
Conditions: Min-6/hGPR119 cells, 45 min at room temperature
In short: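 MIN6 cells stably expressing human GPR119, seeded 10000/well and grown 24 h, were exposed to compound in pH 7.4 buffer with 0.5 mM IBMX, 0.1% BSA and 1% DMSO for 45 min at room temperature. Intracellular cAMP then measured by AlphaScreen.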

Compound | EC50
CC(C)(C)OC(=O)N1CCC(N(C(=O)c2cnc(-c3ccc(C(=O)NC4CCC(O)CC4)cc3)nc2)C2CC2)CC1 (centres unmarked) [Example 171, 4-(Cyclopropyl-{2-[4-(4-hydroxy-cyclohexylcarbamoyl)-phenyl]-pyrimidine-5-carbonyl}-amino)-piperidine-1-carboxylic acid tert-butyl ester] | 383 nM
COCC(C)N(C)C(=O)c1ccc(-c2ncc(C(=O)N(C3CC3)C3CCN(C(=O)OC(C)(C)C)CC3)cn2)cc1 (centres unmarked) [Example 172, 4-[Cyclopropyl-(2-{4-[(2-methoxy-1-methyl-ethyl)-methyl-carbamoyl]-phenyl}-pyrimidine-5-carbonyl)-amino]-piperidine-1-carboxylic acid tert-butyl ester] | 226 nM
COC(C)CN(C)C(=O)c1ccc(-c2ncc(C(=O)N(C3CC3)C3CCN(C(=O)OC(C)(C)C)CC3)cn2)cc1 (centres unmarked) [Example 173, 4-[Cyclopropyl-(2-{4-[(2-methoxy-propyl)-methyl-carbamoyl]-phenyl}-pyrimidine-5-carbonyl)-amino]-piperidine-1-carboxylic acid tert-butyl ester] | 234 nM
COc1ccc(NC(=O)c2ccc(-c3ncc(C(=O)N(C4CC4)C4CCN(C(=O)OC(C)(C)C)CC4)cn3)cc2)cn1 [Example 174, 4-(Cyclopropyl-{2-[4-(6-methoxy-pyridin-3-ylcarbamoyl)-phenyl]-pyrimidine-5-carbonyl}-amino)-piperidine-1-carboxylic acid tert-butyl ester] | 170 nM
CCOCCNC(=O)c1ccc(-c2ncc(C(=O)N(C3CC3)C3CCN(C(=O)OC(C)(C)C)CC3)cn2)cc1 [Example 175, 4-(Cyclopropyl-{2-[4-(2-ethoxy-ethylcarbamoyl)-phenyl]-pyrimidine-5-carbonyl}-amino)-piperidine-1-carboxylic acid tert-butyl ester] | 165 nM
CC(C)(C)OC(=O)N1CCC(N(C(=O)c2cnc(-c3ccc(C(=O)Nc4ccc(CO)cc4)cc3)nc2)C2CC2)CC1 [Example 176, 4-(Cyclopropyl-{2-[4-(4-hydroxymethyl-phenylcarbamoyl)-phenyl]-pyrimidine-5-carbonyl}-amino)-piperidine-1-carboxylic acid tert-butyl ester] | 346 nM
CN(CCC#N)C(=O)c1ccc(-c2ncc(C(=O)N(C3CC3)C3CCN(C(=O)OC(C)(C)C)CC3)cn2)cc1 [Example 177, 4-[(2-{4-[(2-Cyano-ethyl)-methyl-carbamoyl]-phenyl}-pyrimidine-5-carbonyl)-cyclopropyl-amino]-piperidine-1-carboxylic acid tert-butyl ester] | 456 nM
CC(C)(C)OC(=O)N1CCC(N(C(=O)c2cnc(-c3ccc(C(=O)N4CCCOCC4)cc3)nc2)C2CC2)CC1 [Example 178, 4-(Cyclopropyl-{2-[4-([1,4]oxazepane-4-carbonyl)-phenyl]-pyrimidine-5-carbonyl}-amino)-piperidine-1-carboxylic acid tert-butyl ester] | 237 nM
CO[C@@H]1CCN(C(=O)c2ccc(-c3ncc(C(=O)N(C4CC4)C4CCN(C(=O)OC(C)(C)C)CC4)cn3)cc2)C1 [Example 179, 4-(Cyclopropyl-{2-[4-(3-methoxy-pyrrolidine-1-carbonyl)-phenyl]-pyrimidine-5-carbonyl}-amino)-piperidine-1-carboxylic acid tert-butyl ester] | 338 nM
CC(C)(C)OC(=O)N1CCC(N(C(=O)c2cnc(-c3ccc(CC(=O)Nc4ccccc4)cc3)nc2)C2CC2)CC1 [Example 180, 4-{Cyclopropyl-[2-(4-phenylcarbamoylmethyl-phenyl)-pyrimidine-5-carbonyl]-amino}-piperidine-1-carboxylic acid tert-butyl ester] | 289 nM
COC1CCN(C(=O)c2ccc(-c3ncc(C(=O)N(C4CC4)C4CCN(C(=O)OC(C)(C)C)CC4)cn3)cc2)CC1 [Example 181, 4-(Cyclopropyl-{2-[4-(4-methoxy-piperidine-1-carbonyl)-phenyl]-pyrimidine-5-carbonyl}-amino)-piperidine-1-carboxylic acid tert-butyl ester] | 206 nM

Now from value to molecule:

EC50 | Compound
319 nM | COCC1CCCCN1C(=O)c1ccc(-c2ncc(C(=O)N(C3CC3)C3CCN(C(=O)OC(C)(C)C)CC3)cn2)cc1 (centres unmarked) [Example 182, 4-(Cyclopropyl-{2-[4-(2-methoxymethyl-piperidine-1-carbonyl)-phenyl]-pyrimidine-5-carbonyl}-amino)-piperidine-1-carboxylic acid tert-butyl ester]
63 nM | CC(C)(C)OC(=O)N1CCC(N(C(=O)c2cnc(-c3ccc(C(=O)Nc4ccccc4)cc3)nc2)C2CC2)CC1 [Example 183, 4-{Cyclopropyl-[2-(4-phenylcarbamoyl-phenyl)-pyrimidine-5-carbonyl]-amino}-piperidine-1-carboxylic acid tert-butyl ester]
149 nM | CC(C)(C)OC(=O)N1CCC(N(C(=O)c2cnc(-c3ccc(CC(=O)N4CC(F)(F)C4)cc3)nc2)C2CC2)CC1 [Example 184, 4-[Cyclopropyl-(2-{4-[2-(3,3-difluoro-azetidin-1-yl)-2-oxo-ethyl]-phenyl}-pyrimidine-5-carbonyl)-amino]-piperidine-1-carboxylic acid tert-butyl ester]
390 nM | COCc1sc(NC(=O)c2ccc(-c3ncc(C(=O)N(C4CC4)C4CCN(C(=O)OC(C)(C)C)CC4)cn3)cc2)nc1C [Example 185, 4-(Cyclopropyl-{2-[4-(5-methoxymethyl-4-methyl-thiazol-2-ylcarbamoyl)-phenyl]-pyrimidine-5-carbonyl}-amino)-piperidine-1-carboxylic acid tert-butyl ester]
617 nM | CN(CC1(C)COC1)C(=O)Cc1ccc(-c2ncc(C(=O)N(C3CC3)C3CCN(C(=O)OC(C)(C)C)CC3)cn2)cc1 [Example 186, 4-{Cyclopropyl-[2-(4-{[methyl-(3-methyl-oxetan-3-ylmethyl)-carbamoyl]-methyl}-phenyl)-pyrimidine-5-carbonyl]-amino}-piperidine-1-carboxylic acid tert-butyl ester]
122 nM | CC(C)(C)OC(=O)N1CCC(N(C(=O)c2cnc(-c3ccc(C(=O)N4CC(F)(F)C4)cc3)nc2)C2CC2)CC1 [Example 187, 4-(Cyclopropyl-{2-[4-(3,3-difluoro-azetidine-1-carbonyl)-phenyl]-pyrimidine-5-carbonyl}-amino)-piperidine-1-carboxylic acid tert-butyl ester]
311 nM | COc1ccc(NC(=O)Cc2ccc(-c3ncc(C(=O)N(C4CC4)C4CCN(C(=O)OC(C)(C)C)CC4)cn3)cc2)c(OC)c1 [Example 188, 4-[Cyclopropyl-(2-{4-[(2,4-dimethoxy-phenylcarbamoyl)-methyl]-phenyl}-pyrimidine-5-carbonyl)-amino]-piperidine-1-carboxylic acid tert-butyl ester]
434 nM | CC(C)(C)OC(=O)N1CCC(N(C(=O)c2cnc(-c3ccc(CC(=O)NC[C@H]4CCCC[C@H]4O)cc3)nc2)C2CC2)CC1 [Example 189]
820 nM | CC(C)(C)OC(=O)N1CCC(N(C(=O)c2cnc(-c3ccc(C(=O)N4CCCC(O)C4)cc3)nc2)C2CC2)CC1 (centres unmarked) [Example 190, 4-(Cyclopropyl-{2-[4-(3-hydroxy-piperidine-1-carbonyl)-phenyl]-pyrimidine-5-carbonyl}-amino)-piperidine-1-carboxylic acid tert-buyl ester]
